Assay results from ChEMBL document CHEMBL1153779, “Tyrosinase-inhibitory constituents from the twigs of Cinnamomum cassia” (J Nat Prod, 2009).

Molecular target: T1, Tyrosinase (Agaricus bisporus, UniProt O42713)
T1 sequence (O42713 whole entry): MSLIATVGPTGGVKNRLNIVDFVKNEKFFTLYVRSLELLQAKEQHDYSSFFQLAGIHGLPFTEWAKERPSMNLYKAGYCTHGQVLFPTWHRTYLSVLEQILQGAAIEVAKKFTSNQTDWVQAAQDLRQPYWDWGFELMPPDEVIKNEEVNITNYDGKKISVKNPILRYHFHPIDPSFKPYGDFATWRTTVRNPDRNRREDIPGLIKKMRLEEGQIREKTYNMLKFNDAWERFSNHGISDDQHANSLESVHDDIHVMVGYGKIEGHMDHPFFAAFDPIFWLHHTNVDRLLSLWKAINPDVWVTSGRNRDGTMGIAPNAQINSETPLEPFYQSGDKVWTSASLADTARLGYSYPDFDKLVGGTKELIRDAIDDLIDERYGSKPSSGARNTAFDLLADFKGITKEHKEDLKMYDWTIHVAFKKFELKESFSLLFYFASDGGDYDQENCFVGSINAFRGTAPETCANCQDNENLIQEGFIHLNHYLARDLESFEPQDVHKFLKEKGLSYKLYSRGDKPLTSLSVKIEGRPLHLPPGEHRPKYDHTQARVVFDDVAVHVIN
Description: Inhibition of mushroom tyrosinase after 10 mins by spectrophotometry

| SMILES | IC50 |
| --- | --- |
| COc1c(O)cccc1/C=C/C=O | 260 µM |
| OC[C@H]1O[C@@H](OCCc2ccccc2)[C@H](O)[C@@H](O)[C@@H]1O[C@@H]1OC[C@](O)(CO)[C@H]1O | 710 µM |
| O=C/C=C/c1ccccc1 | 520 µM |
| COc1ccccc1/C=C/C=O | 420 µM |
| O=C/C=C/c1ccccc1O [2-HYDROXYCINNAMALDEHYDE] | 470 µM |
| C[C@@H]1O[C@@H](OC[C@H]2O[C@@H](Oc3ccccc3/C=C/CO)[C@H](O[C@@H]3[C@@H](OCc4ccccc4)O[C@@H](CO[C@@H]4OC[C@](O)(CO)[C@H]4O)[C@H](O)[C@H]3O)[C@@H](O)[C@@H]2O)[C@H](O)[C@H](O)[C@H]1O [CINNACASSINOL] | 940 µM |
| OC/C=C/c1ccccc1 [CINNAMIC ALCOHOL] | > 10000 µM |
| COc1cc(/C=C/C=O)ccc1O [CONIFERYL ALDEHYDE] | 240 µM |

Now from value to compound:

| IC50 | SMILES |
| --- | --- |
| 670 µM | O=C(CCc1ccccc1O)O[C@@H]1O[C@H](CO)[C@@H](O)[C@H](O)[C@H]1O [DIHYDROCINNACASSIDE] |
| 570 µM | O=C(O)CCc1ccccc1O[C@@H]1O[C@H](CO)[C@@H](O)[C@H](O)[C@H]1O [DIHYDROMELILOTOSIDE] |
| 4210 µM | Oc1ccc(O)cc1 [HYDROQUINONE] |
| 630 µM | COC(=O)CCc1ccccc1O[C@@H]1O[C@H](CO)[C@@H](O)[C@H](O)[C@H]1O [METHYL DIHYDROMELILOTOSIDE] |
| 670 µM | O=C(O)/C=C/c1ccccc1O [O-COUMARIC ACID] |
| > 10000 µM | O[C@@H]1[C@@H](O)[C@@H](OC/C=C/c2ccccc2)O[C@H](CO[C@@H]2OC[C@H](O)[C@H](O)[C@H]2O)[C@H]1O [ROSAVIN] |
